Measurements as given in patent US20250228824A1, “COMPOSITIONS AND METHODS FOR INHIBITION OF ITO AS TREATMENT FOR THE J WAVE SYNDROMES AND HYPOTHERMIA” (Lankenau Institute for Medical Research, priority 2021, published 2025).

Key:
Nav1.5 (peak INa) = target: T1, Nav1.5 (peak INa) (Homo sapiens, UniProt Q14524); experiment: Automated patch clamp (Qube-384) of INa in HEK cells transfected with SCN5A+SCN1B; format: cell-based; conditions: human, pH 7.4; 50 μM; holding potential −90 mV
T1 construct: expressed in transfected cells; host or cells: HEK cells, transfected with Lipofectamine 2000
T1 sequence (Q14524 whole entry): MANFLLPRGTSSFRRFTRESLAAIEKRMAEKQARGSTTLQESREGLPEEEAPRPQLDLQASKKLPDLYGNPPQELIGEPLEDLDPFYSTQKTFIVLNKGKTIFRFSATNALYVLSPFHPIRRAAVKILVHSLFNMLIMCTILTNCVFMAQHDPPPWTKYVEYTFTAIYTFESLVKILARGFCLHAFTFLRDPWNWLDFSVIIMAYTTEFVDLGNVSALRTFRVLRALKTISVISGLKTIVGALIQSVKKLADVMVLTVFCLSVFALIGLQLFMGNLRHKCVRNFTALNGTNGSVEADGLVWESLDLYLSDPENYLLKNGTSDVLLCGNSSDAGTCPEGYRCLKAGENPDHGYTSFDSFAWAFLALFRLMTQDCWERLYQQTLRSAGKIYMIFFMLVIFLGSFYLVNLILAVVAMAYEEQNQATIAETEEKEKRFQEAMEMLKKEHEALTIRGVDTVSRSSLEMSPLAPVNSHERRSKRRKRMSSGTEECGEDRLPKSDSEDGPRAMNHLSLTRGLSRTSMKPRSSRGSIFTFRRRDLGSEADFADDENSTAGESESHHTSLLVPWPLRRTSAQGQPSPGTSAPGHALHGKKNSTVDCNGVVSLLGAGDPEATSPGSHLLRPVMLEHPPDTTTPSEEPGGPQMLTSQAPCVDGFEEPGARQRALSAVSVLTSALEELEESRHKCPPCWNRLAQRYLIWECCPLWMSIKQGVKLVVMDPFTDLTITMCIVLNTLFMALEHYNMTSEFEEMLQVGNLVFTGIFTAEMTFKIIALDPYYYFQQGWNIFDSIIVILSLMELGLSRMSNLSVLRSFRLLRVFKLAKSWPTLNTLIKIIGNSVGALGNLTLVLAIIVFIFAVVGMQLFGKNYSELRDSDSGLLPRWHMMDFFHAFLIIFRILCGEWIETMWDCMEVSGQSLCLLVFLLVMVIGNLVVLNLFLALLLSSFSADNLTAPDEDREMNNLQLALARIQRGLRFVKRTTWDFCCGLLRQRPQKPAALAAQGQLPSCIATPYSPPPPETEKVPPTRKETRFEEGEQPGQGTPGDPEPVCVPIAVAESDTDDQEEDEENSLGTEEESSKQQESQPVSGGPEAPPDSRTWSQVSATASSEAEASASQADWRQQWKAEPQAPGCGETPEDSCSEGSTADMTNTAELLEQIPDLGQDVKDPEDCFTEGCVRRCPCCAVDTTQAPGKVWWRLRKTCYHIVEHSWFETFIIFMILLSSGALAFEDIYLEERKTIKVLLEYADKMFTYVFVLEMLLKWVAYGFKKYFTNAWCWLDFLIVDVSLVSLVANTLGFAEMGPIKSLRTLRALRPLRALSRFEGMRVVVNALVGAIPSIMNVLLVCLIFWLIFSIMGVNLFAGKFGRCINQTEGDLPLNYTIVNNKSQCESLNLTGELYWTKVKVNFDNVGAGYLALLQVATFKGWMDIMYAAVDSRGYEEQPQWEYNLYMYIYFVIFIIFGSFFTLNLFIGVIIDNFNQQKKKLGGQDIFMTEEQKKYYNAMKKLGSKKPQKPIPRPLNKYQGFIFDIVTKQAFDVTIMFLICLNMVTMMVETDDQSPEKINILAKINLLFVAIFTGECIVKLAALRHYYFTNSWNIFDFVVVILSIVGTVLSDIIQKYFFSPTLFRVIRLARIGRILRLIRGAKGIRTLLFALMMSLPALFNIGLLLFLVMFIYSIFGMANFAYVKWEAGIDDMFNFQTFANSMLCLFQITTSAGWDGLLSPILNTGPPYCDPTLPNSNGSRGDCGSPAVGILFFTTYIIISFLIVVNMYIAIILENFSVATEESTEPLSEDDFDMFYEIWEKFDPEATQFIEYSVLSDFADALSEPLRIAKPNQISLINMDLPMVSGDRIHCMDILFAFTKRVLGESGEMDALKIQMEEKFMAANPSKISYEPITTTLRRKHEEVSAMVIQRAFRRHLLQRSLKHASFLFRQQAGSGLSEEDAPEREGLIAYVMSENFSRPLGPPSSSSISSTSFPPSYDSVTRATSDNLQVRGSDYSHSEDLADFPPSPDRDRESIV
T1 sequence (Q07699 19-218 partner): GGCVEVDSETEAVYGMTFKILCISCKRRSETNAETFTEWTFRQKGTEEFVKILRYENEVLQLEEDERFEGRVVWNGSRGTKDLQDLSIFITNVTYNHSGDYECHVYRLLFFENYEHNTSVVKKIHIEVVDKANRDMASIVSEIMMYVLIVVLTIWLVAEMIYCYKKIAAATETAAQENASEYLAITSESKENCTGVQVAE
Procedure: HEK cells transiently transfected with wild-type SCN5A (α subunit—Nav1.5) together with SCN1B (β1 subunit) using Lipofectamine 2000 were used to assess the effect of AR-787 on the cardiac sodium channel current (INa). All cells were incubated at 37° C./5% CO2. All cell culture reagents were purchased from Thermo Fisher Scientific (Waltham, MA).
The effect of AR-787 on cardiac sodium channel current was evaluated in HEK cells co-transfected with SCN5A and SCN1B. INa was measured in the whole-cell configuration using a Qube-384 (Sophion A/S, Copenhagen, Denmark) automated voltage clamp system. A flipped Na^+ gradient was used where the extracellular solution contained (in mM): 125 choline chloride, 1 NaCl, 5 KCl, 2 CaCl2, 1 MgCl2, 10 HEPES/NaOH, pH 7.4 (adjusted with NaOH), and the intracellular solution contained (in mM): 115 NaF, 15 CsCl2, 5 CsF, 3 Na2ATP, 0.3 Na2GTP, 2 MgCl2, 0.1 CaCl2, 10 EGTA, and 10 HEPES/CsOH, pH 7.2 (adjusted with NaOH). The currents were low-pass-filtered at 5 kHz and recorded at 25 kHz sampling frequency. Series resistance compensation was applied at 100%, and leak subtraction was enabled. Experiments were performed at room temperature (27° C.). Appropriate filters for cell membrane resistance (typically >500 MΩ), series resistance (<10 MΩ), and Nav current magnitude (>500 pA at a test pulse from a resting holding potential of −120 mV) were routinely applied to exclude poor quality cells. Vehicle (0.5% DMSO) controls were run on each plate to enable correction for any compound independent decrease of currents over time.
We used a double voltage-pulse protocol designed specifically to assess whether the compound is a potentiator, inhibitor, or both. The protocol assesses these parameters at both rest and partially inactivated holding potentials. Currents were assessed by a test pulse of 0 mV from a holding potential at rest (−120 mV) before preconditioning channels to their appropriate mid-potential (V1/2) values (NaV1.5 V1/2=−90 mV) for 10 s. Peak current, time constant of inactivation (τ inactivation) and persistent current were measured.
Time constants (τ) for fast inactivation onset were derived by fitting a single exponential function to the decay of current obtained from the depolarizing test pulse following a holding potential of −120 mV.
where I is current amplitude, Iss is the plateau amplitude, α is the amplitude at time 0 for time constant τ, and t is time. Persistent sodium current was measured during a 10 ms test pulse from −120 mV to 0 mV. It was calculated as a percentage of peak sodium current at 5 ms.

KV4.3 (Ito) = target: T2, KV4.3 (Ito) (Canis lupus familiaris, UniProt A0A8I3NA05); experiment: Whole-cell patch clamp of Ito in dissociated canine ventricular epicardial myocytes; format: cell-based
T2 sequence (A0A8I3NA05 1-655): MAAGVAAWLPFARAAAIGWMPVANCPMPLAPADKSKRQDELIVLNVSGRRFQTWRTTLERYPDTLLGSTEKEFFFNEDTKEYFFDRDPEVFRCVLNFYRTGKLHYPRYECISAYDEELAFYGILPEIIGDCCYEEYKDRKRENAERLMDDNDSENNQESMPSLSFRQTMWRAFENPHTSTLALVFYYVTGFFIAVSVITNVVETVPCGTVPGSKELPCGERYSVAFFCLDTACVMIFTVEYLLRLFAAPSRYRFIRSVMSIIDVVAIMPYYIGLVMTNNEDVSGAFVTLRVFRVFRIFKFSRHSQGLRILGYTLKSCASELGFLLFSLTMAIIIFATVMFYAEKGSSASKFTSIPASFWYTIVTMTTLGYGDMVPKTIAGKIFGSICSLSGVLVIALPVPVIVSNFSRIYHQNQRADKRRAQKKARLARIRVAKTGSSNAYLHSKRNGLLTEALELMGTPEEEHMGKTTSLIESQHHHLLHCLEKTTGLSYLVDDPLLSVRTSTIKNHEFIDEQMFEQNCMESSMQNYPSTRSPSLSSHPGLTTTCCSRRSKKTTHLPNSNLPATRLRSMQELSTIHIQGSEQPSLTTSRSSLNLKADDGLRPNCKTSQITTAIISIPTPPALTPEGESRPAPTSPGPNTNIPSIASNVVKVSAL
Procedure: Single myocytes were isolated from coronary-perfused canine right or left ventricular wedge preparations via enzymatic dissociation. Briefly, the wedge preparations were coronary perfused with nominally Ca^+2-free Tyrode's solution for a period of 15 min. They were then subjected to enzymatic digestion in nominally Ca^2+-free solution supplemented with 0.6 mg/ml collagenase (type II; Worthington) and 0.075 mg/ml protease (type XIV; Sigma) for 25-35 min. The wedge preparation was then perfused for 15 min with a taurine buffer solution containing (in mM): 108 NaCl, 10 HEPES, 11 D-glucose, 4 KCl, 1.2 MgSO4, 1.2 NaH2PO4, 50 taurine and 0.025 CaCl2. pH was adjusted to 7.4 using NaOH. After perfusion, thin slices of tissue were cut from the epicardial surface to obtain single epicardial cells as previously described.^6
Ito and APs were measured in isolated RV or LV myocytes. APs were measured in the current-clamp mode in the whole-cell configuration. APs were initiated using intracellular current injection and recorded continuously by means of Clampex software (Axon Instruments/Molecular Devices) at a sampling frequency of […]. Ito was measured using the Axopatch 200B-2 amplifier in V-Clamp mode.
Ito was recorded in isolated ventricular epicardial cells at 37° C. using whole-cell patch clamp techniques. Ito was elicited using a series of 350 ms voltage steps between −50 mV and +40 mV from a holding potential of −90 mV. A 15 ms prepulse to −20 mV was used to discharge the sodium current. Interpulse interval was 50 ms. The amplitude of Ito was determined by subtracting […] at the end of the pulse. The total charge carried by Ito was determined by calculating the area under the Ito current waveform. The extracellular solution contained (in mM): 140 NaCl, 4 KCl, 1.8 CaCl2, 1.2 MgCl2, 10 HEPES, and 10 glucose, pH 7.4 (adjusted with NaOH). The intracellular solution contained (in mM): 120 KCl, 1.5 MgCl2, 10 HEPES, 0.5 EGTA, 0.01 CaCl2, 5 MgATP, pH 7.2 (adjusted with NaOH). Following baseline measurements, recordings was repeated during exposure to AR-787.

**Q.** Which results are given for `Cc1nc(-n2cccc2)sc1C(=O)N=c1[nH]c2ccccc2[nH]1` [AR-787, N-(1H-benzimidazol-2-yl)-4-methyl-2-pyrrol-1-yl-thiazole-5-carboxamide]?
**A.** inhibition at 50 µM (Nav1.5 (peak INa)): 80%; inhibition at 1 µM (KV4.3 (Ito); 1 μM, at +20 mV, 37° C., read-out: reduction of Ito density): 34%; inhibition at 10 µM (KV4.3 (Ito); 10 μM, at +20 mV, 37° C., read-out: reduction of Ito density): 68%; inhibition at 50 µM (KV4.3 (Ito); 50 μM, at +20 mV, 37° C., read-out: reduction of Ito density): 85.2%; IC50 (KV4.3 (Ito); estimated, read-out: IC50 for Ito inhibition): ~8 µM
